The structures appear in SMILES notation. Several values for one entry are separate records, joined by “and”; a condition that tells them apart may be missing. Equal entries are not always repeated.

This assay has as its target T1, hNav1.5 (Homo sapiens, UniProt Q14524).
T1 construct: host or cells: HEK293T
Description: State-dependent blocking/unblocking kinetics of Nav1.5 (use-dependent block protocol, inactivation time constants). It is filed as cell-based. As for the experimental part: Manual whole-cell patch-clamp experiments were performed at room temperature, with equipment as described in previous studies. Pipettes were pulled from Clark borosilicate glass capillaries with inner filament (GC150F-10, Harvard Apparatus, Holliston, MA, USA) and had typical resistances of 2–3 MΩ. Recordings were performed with a WPC-100 resistive feedback amplifier (ESF electronic, Göttingen, Germany) or an Axopatch 200B amplifier (Axon Instruments—Molecular Devices, San Jose, CA, USA) connected to a Digidata 1322A interface driven by the pClamp 8.2 Clampex module (Axon Instruments, part of Molecular Devices, San Jose, CA, USA). For different types of ion channel, we applied specific voltage-clamp protocols as follows: • - For hERG, a standard two-step activation protocol was used: holding at −70 mV, a 100 ms step at −50 mV used as current reference for measurements, a 2 s depolarizing step at +40 mV, followed by a 2 s step at −50 mV to elicit the peak hERG current by rapid recovery from inactivation, repeated sweeps at 10 s intervals, plus specific protocols to assess the voltage dependence of activation and inactivation, as described in Thomet et al., 2021 [11]. • - For hKv7.1 + minK, a general two-step activation protocol was used: holding at −110 mV, a 250 ms step at −80 mV with a brief (50 ms) step at −90 mV at the middle to monitor seal quality, a 3000 ms depolarizing step at +60 mV, followed by a 1000 ms step at −50 mV; repeated sweeps at 20 s intervals. • - For hCav1.2, a pharmacology protocol with holding at −80 mV, a first 100 ms step at −50 mV and a second 200 ms step at 0 mV, repeated sweeps at 20 s intervals with drug application after 5 sweeps if current levels were steady, plus an activation–inactivation protocol with holding at −80 mV, 1000 ms depolarizing steps from −80 to +50 mV in 10 mV increments, followed by 250 ms steps at +10 mV and a return to −80 mV; 14 sweeps at 20 s intervals. • - For hNav1.5, multiple voltage protocols were used, including the following: • - A standard pharmacology protocol with holding at −90 mV, a 20 ms step at −110 mV for seal monitoring, a 40 ms activation step at −10 mV, and repeated sweeps at 1 s intervals.
To estimate state-specific blocking and unblocking kinetics, we applied, initially and during exposure to cenobamate, a special voltage protocol devised for use-dependent block, with repeated brief depolarizing pulses at −10 mV separated by variable intervals at a hyperpolarized potential (−120 mV), with durations between 5 and 50 ms, as described in Section 2. Recordings using this protocol in initial conditions and with cenobamate application are illustrated in Figure S3 of the Supplementary Materials. By noting with td = 10 ms and tr = 5–50 ms the times spent at a depolarized potential and at a resting hyperpolarized potential during each pulse, with on the fraction of available (non-inactivated or blocked) channels that produce the peak Na^+ current during each depolarizing pulse of the sequence, and with τi and τr, the apparent macroscopic time constants of inactivation and recovery from inactivation in control conditions (in the absence of a blocker), we obtained using several approximations a general recurrence formula that allows computation for each experiment of the recovery time constant, knowing the inactivation time constant (obtained by the monoexponential fit of the inactivation part of the recording during the depolarization pulse) and the decay in peak INa amplitude during pulse n relative to the peak amplitude during the preceding pulse (1 − on)/on−1 (detailed explanations in Section S1 of the Supplementary Materials): τr=tr/ln1−e^−td/τi−ln1−on/on−1

T1 sequence (Q14524 whole entry): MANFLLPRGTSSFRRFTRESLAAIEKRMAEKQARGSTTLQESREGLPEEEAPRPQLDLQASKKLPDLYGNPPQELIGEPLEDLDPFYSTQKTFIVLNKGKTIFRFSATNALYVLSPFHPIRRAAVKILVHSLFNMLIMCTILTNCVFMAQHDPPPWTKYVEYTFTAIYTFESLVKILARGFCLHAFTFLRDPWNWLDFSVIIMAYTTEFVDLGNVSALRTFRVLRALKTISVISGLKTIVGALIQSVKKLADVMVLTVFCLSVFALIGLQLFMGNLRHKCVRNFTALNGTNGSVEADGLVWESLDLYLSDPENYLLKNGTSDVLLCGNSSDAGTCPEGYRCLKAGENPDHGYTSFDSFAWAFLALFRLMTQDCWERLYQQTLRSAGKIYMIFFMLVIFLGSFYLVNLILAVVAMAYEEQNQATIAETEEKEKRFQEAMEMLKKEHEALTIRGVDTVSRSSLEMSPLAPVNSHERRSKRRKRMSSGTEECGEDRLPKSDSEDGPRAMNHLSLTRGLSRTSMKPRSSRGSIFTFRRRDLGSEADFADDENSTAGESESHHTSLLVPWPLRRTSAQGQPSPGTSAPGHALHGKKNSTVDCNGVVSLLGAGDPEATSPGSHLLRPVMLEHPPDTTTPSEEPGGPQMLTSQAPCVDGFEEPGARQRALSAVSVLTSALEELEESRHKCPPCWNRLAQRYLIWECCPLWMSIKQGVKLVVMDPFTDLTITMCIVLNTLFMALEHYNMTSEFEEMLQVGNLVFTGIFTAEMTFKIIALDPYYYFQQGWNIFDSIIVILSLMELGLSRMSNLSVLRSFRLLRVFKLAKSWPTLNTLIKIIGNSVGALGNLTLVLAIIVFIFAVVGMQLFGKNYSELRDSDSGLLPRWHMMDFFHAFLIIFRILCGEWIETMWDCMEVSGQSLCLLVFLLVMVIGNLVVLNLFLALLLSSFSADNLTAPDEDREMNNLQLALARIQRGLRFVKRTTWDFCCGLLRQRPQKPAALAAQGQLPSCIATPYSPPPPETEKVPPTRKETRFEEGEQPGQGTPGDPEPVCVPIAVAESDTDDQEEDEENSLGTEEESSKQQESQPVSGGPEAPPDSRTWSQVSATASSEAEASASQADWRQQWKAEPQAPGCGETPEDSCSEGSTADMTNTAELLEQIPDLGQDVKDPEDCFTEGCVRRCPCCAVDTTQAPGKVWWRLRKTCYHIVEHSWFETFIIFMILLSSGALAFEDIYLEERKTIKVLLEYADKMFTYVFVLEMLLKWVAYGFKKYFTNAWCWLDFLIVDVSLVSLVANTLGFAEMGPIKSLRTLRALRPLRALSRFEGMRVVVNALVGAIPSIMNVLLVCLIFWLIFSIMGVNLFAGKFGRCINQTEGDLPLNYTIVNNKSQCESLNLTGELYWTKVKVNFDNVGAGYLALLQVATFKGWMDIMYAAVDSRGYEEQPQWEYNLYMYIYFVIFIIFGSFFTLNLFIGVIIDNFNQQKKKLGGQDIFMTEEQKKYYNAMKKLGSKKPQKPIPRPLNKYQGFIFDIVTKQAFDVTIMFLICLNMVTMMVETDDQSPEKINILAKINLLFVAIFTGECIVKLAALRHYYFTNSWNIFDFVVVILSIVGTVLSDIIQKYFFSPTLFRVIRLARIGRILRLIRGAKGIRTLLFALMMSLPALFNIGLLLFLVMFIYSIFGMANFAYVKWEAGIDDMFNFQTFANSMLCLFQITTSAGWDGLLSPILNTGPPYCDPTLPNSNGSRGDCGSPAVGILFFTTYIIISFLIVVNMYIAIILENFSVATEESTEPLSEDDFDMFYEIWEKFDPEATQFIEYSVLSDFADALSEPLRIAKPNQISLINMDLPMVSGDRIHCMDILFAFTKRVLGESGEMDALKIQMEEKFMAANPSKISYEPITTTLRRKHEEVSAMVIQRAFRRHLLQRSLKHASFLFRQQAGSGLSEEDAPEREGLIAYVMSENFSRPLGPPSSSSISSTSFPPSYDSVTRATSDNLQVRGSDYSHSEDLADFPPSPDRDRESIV

What is called Kd is the free concentration of one partner at which half of the binding sites on the other are occupied at equilibrium, for simple one-to-one binding. Turning to `NC(=O)O[C@@H](Cn1ncnn1)c1ccccc1Cl` [cenobamate], the “kib (blocking rate, inactivated conformation)” value was determined as 0.0006698 µM⁻¹ ms⁻¹; the “kib (model script)” value is 0.0000006698 nM⁻¹ ms⁻¹; the “kib^−1 (unblocking rate, inactivated conformation)” value came out at 0.1825 ms^−1; the “kob (blocking rate, open conformation)” value came out at 0.00215 µM⁻¹ ms⁻¹. For the same compound, the “kob (model script)” value stood at 0.00000215 nM⁻¹ ms⁻¹ and the “kob^−1 (unblocking rate, open conformation)” value came to 0.189 ms^−1. Moreover, for the setting “Kd (I)”, binding was put at a Kd of 273 µM. The dissociation constant (Kd) (Kd (O), open conformation, assumed equivalent to IC50 on peak INa) was 87.8 µM. Also, the “1/τib (kib × [D] + kib^−1)” value ([D] 98.44 µM) worked out at 0.2484 ms^−1. Also, the “est. τib” value (blocking/unblocking time constant of inactivated conformation, cenobamate estimated 98.44 µM, per experiment and mean ± SD) is 4.08 ms and 3.83 ms and 4.94 ms and 3.25 ms. Besides, under “cenobamate 200 µM, initial 0.94”, the “Rate (1/τ) with cenobamate” value is reported as 1.56 ms^−1. Besides, the “τi+ob” value (use-dependent block protocol during cenobamate (estimated 98.44 µM), per experiment and mean ± SD) is 2.23 ms and 3.04 ms and 2.94 ms and 1.73 ms.

The values above are taken from paper PMC11674187, “Inhibitory Effects of Cenobamate on Multiple Human Cardiac Ion Channels and Possible Arrhythmogenic Consequences” (Biomolecules, 2024).
